# Source: patent publication US20060069132A1, “Azolecarboxamide herbicides” (priority 2004, published 2006)
# How the values were obtained:
# barnyardgrass = assay: Test B pre-/postemergence herbicide test; format: in vivo, Echinochloa crus-galli; settings: for Barnyardgrass plant response rating: Postemergence, scale 0 (no effect) to 100 (complete control)
# Method in brief: (§1)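 Flooded paddy rice and barnyardgrass were treated at the 2-leaf stage; upland plantings received compound either on sown seed or on 1- to 4-leaf seedlings. All were kept 13–15 days in a greenhouse and scored visually, 0–100, relative to untreated plants.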
# Surinam grass = assay: Test B pre-/postemergence herbicide test; format: in vivo, Urochloa decumbens
# Method in brief: (§2)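 Formulation: non-phytotoxic solvent mix with surfactant. Timing: preemergence on seed and postemergence on 2–18 cm plants, applied concurrently. Readout after 13–15 d greenhouse: visual 0–100 control rating against controls.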
# cocklebur = assay: Test B pre-/postemergence herbicide test; format: in vivo, Xanthium strumarium
# Method in brief: as §1
# corn = assay: Test B pre-/postemergence herbicide test; format: in vivo, Zea mays
# Method in brief: as §2
# large crabgrass = assay: Test B pre-/postemergence herbicide test; format: in vivo, Digitaria sanguinalis
# Method in brief: as §2
# giant foxtail = assay: Test B pre-/postemergence herbicide test; format: in vivo, Setaria faberi
# Method in brief: as §2
# lambsquarters = assay: Test B pre-/postemergence herbicide test; format: in vivo, Chenopodium album
# Method in brief: as §2
# pigweed = assay: Test B pre-/postemergence herbicide test; format: in vivo, Amaranthus retroflexus
# Method in brief: as §2
# velvetleaf = assay: Test B pre-/postemergence herbicide test; format: in vivo, Abutilon theophrasti
# Method in brief: as §2
# blackgrass = assay: Test B postemergence herbicide test; format: in vivo, Alopecurus myosuroides
# Method in brief: (§3)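 After treating 2-leaf paddy plants or 2–18 cm postemergence plants (1 to 4 leaves) with formulated chemical, researchers kept them in a greenhouse for 13–15 days. Effects were judged visually versus controls: 0 indicates none, 100 total control.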
# wheat = assay: Test B postemergence herbicide test; format: in vivo, Triticum aestivum; design: key to Wheat plant response rating: 0 = no effect, 100 = complete control
# Method in brief: (§4)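 Formulated test chemicals went onto postemergence plants measuring 2 to 18 cm, at one to four leaves. For the paddy assay, species had reached two leaves. Scoring took place 13–15 days later by eye, relative to untreated plants, using 0 for no effect up to 100 for full control.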
# wild oat = assay: Test B postemergence herbicide test; format: in vivo, Avena fatua
# Method in brief: as §4
# rice = assay: Test B flooded paddy test; format: in vivo, Oryza sativa; settings: 1000 g ai/ha, scale 0 to 100 (0 no effect, 100 complete control)
# Method in brief: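 Scale 0–100: zero equals no visible effect, 100 complete control, judged by eye relative to controls. Timing: 13 to 15 days in greenhouse post-treatment. Growth stage at spraying: two leaves (paddy) or one to four leaves, 2–18 cm (postemergence).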
# [1] = test system: small flower umbrella sedge; assay: Test B flooded paddy test; format: in vivo, Cyperus difformis; settings: 1000 g ai/ha, scale 0 to 100 (0 no effect, 100 complete control)
# Method in brief: as §3
# ducksalad = assay: Test B flooded paddy test; format: in vivo, Heteranthera limosa; settings: 1000 g ai/ha, scale 0 to 100 (0 no effect, 100 complete control)
# Method in brief: as §3
# [2] = 125 g ai/ha, 0 is no effect, 100 is complete control, preemergence
# [3] = Postemergence, 500 g ai/ha, scale 0 (no effect) to 100 (complete control)
# [4] = postemergence, 125 g ai/ha, scale 0 to 100
smiles,measurement,setting,value
C=CCOc1cccc(NC(=O)c2cc(C(C)(C)C)nn2CC)c1 [Compound 412],"Plant response rating (0 to 100 scale), Barnyardgrass",barnyardgrass; [2],40
same,Barnyardgrass plant response rating,barnyardgrass; 125 g ai/ha,0
same,Barnyardgrass plant response rating,barnyardgrass; 500 g ai/ha,0
same,"Plant response rating (0 to 100 scale), Surinam Grass",Surinam grass; [2],0
same,Surinam Grass plant response rating,Surinam grass; [3],30
same,Surinam Grass plant response rating,Surinam grass; [4],0
same,"Plant response rating (0 to 100 scale), Cocklebur",cocklebur; [2],0
same,Cocklebur plant response rating,cocklebur; [3],30
same,Cocklebur plant response rating,cocklebur; [4],0
same,"Plant response rating (0 to 100 scale), Corn",corn; [2],0
same,Corn plant response rating,corn; [3],0
same,Corn plant response rating,corn; [4],0
same,"Plant response rating (0 to 100 scale), Crabgrass, Large",large crabgrass; [2],50
same,"Crabgrass, Large plant response rating",large crabgrass; [3],30
same,"Crabgrass, Large plant response rating",large crabgrass; [4],0
same,"Plant response rating (0 to 100 scale), Foxtail, Giant",giant foxtail; [2],30
same,"Foxtail, Giant plant response rating",giant foxtail; [3],30
same,"Foxtail, Giant plant response rating",giant foxtail; [4],30
same,"Plant response rating (0 to 100 scale), Lambsquarters",lambsquarters; [2],0
same,Lambsquarters plant response rating,lambsquarters; [3],100
same,Lambsquarters plant response rating,lambsquarters; [4],60
same,"Plant response rating (0 to 100 scale), Pigweed",pigweed; [2],50
same,Pigweed plant response rating,pigweed; [3],100
same,Pigweed plant response rating,pigweed; [4],90
same,"Plant response rating (0 to 100 scale), Velvetleaf",velvetleaf; [2],0
same,Velvetleaf plant response rating,velvetleaf; [3],10
same,Velvetleaf plant response rating,velvetleaf; [4],0
same,Blackgrass plant response rating,blackgrass; [3],40
same,Blackgrass plant response rating,blackgrass; [4],40
same,Wheat plant response rating,"wheat; 500 g ai/ha, scale 0 to 100, 0 no effect, 100 complete control, preemergence",20
same,Wheat plant response rating,wheat; [3],20
same,Wheat plant response rating,wheat; [4],10
same,"Oat, Wild plant response rating",wild oat; [3],40
same,"Oat, Wild plant response rating",wild oat; [4],30
same,Rice plant response rating,rice,40
same,"Sedge, Umbrella plant response rating",[1],90
same,Ducksalad plant response rating,ducksalad,80
